Experimental data as given in paper PMC3124649 (Journal of medicinal chemistry, 2011).

Legend:
[1] = administered after food; cited from earlier work
CYP isozymes = assay: CYP inhibition panel; format: in vitro ADME
anaerobic bacteria [2] = assay: Activity against anaerobes
[3] = system: HBV replication (extracellular virion HBV DNA); assay: HBV virion; format: cell-based, hepatitis B virus; conditions: for activity against HBV (in words): 2.2.15 cells
Rat PK study = format: in vivo
Plasma protein binding = format: in vitro ADME; conditions: ADME/Tox studies
[4] = Stability in human blood and plasma; format: in vitro ADME; conditions: one hour incubation
Dog PK study = format: in vivo
HCV = conditions: cited from earlier work
[5] = cited from earlier work
anaerobic bacteria [6] = conditions: cited from earlier work
[7] = cited from earlier work; remark: listed apart in the source

Structure (SMILES)	activity against HBV (in words) [3]	other results
CC(=O)Oc1ccccc1C(=O)Nc1ncc([N+](=O)[O-])s1 [Compound 1, nitazoxanide]		oral bioavailability [1]: about 50%
O=C(Nc1ncc(Cl)s1)c1ccccc1O [Compound 3, 2-Hydroxybenzoyl-N-(5-chlorothiazol-2-yl) amide]		drug-drug interactions (CYP isozymes): nor does it show unfavourable drug-drug interactions; effects against a panel of CYPs (CYP isozymes): no adverse effects; activity against anaerobes (anaerobic bacteria [2]): inactive
Cc1cccc(C(=O)Nc2ncc(Cl)s2)c1O [Compound 11]	essentially inactive	
Cc1ccc(O)c(C(=O)Nc2ncc(Cl)s2)c1 [Compound 12, 2-Hydroxy-5-methylbenzoyl-N-(5-chlorothiazol-2-yl) amide]		oral absorption (Rat PK study): not orally absorbed; protein bound (Plasma protein binding): > 99%; inhibition of CYP isozymes (CYP isozymes; 14 different CYP isozymes): not an inhibitor; stability in human blood and plasma [4]: complete stability; oral absorption (Dog PK study): not orally absorbed
O=C(Nc1nccs1)c1ccccc1O [Compound 16]	complete loss of HBV activity	
CC(C)c1cnc(NC(=O)c2ccccc2O)s1 [Compound 17]	inactive	
O=C(Nc1ncc(-c2ccc(Cl)cc2)s1)c1ccccc1O [Compound 18]	inactive	
O=C(Nc1nc(-c2ccccc2)cs1)c1ccccc1O [Compound 19]	modest level of activity	
CC(=O)Nc1cnc(NC(=O)c2ccccc2O)s1 [Compound 23, 2-Hydroxybenzoyl-N-(5-acetamidothiazol-2-yl)amide]	inactive	
CS(=O)(=O)c1csc(NC(=O)c2ccccc2O)n1 [Compound 24]	inactive	inhibition of HCV (HCV): potent inhibitor
CS(=O)(=O)c1cnc(NC(=O)c2ccccc2O)s1 [Compound 25]	inactive	
N#Cc1cnc(NC(=O)c2ccccc2O)s1 [Compound 26]	slight activity	
COC(=O)c1cnc(NC(=O)c2ccccc2O)s1 [Compound 27]	inactive	
O=C(Nc1ncc(C(F)(F)F)s1)c1ccccc1O [Compound 28]	slight activity	
CC(=O)Oc1ccccc1C(=O)Nc1ccc(Cl)cc1 [Compound 30]	low potency	
O=C(Nc1ccc(Cl)cc1)c1ccccc1O [Compound 31]	lack of activity	
CC(=O)Oc1ccccc1C(=O)Nc1ccc(Br)cc1 [Compound 32]	useful activity	
CC(=O)Oc1ccccc1C(=O)Nc1ccc(I)cc1 [Compound 33]	useful activity	
O=C(Nc1ccc([N+](=O)[O-])cc1)c1ccccc1O [Compound 34]	inactive	
O=C(Nc1cc(C(F)(F)F)ccc1Cl)c1ccccc1O [Compound 35]	moderate activity	
CC(=O)Oc1ccccc1C(=O)Nc1cc(C(F)(F)F)cc(C(F)(F)F)c1 [Compound 36]	moderate activity	
Cc1cc([N+](=O)[O-])c(Cl)cc1NC(=O)c1ccccc1O [Compound 37]	good activity	
CSc1cnc(NC(=O)c2ccccc2OC(C)=O)s1 [Compound 44]	inactive	
O=C(Nc1ncc([N+](=O)[O-])s1)c1ccccc1O[C@@H]1O[C@H](C(=O)O)[C@@H](O)[C@H](O)[C@H]1O [Compound 58]		antiviral activity [5]: essentially devoid of antiviral activity; activity against anaerobic bacteria (anaerobic bacteria [6]): moderate activity
O=C(Nc1ccc([N+](=O)[O-])cc1Cl)c1cc(Cl)ccc1O [Niclosamide, reference compound]	inactive	EC50 ([3]; Hepatitis B virus, read-out: EC50 (VIR)): > 10 µM; aqueous solubility [7]: poor
